In ChEMBL document CHEMBL1149022, “Antitumor agents, 85. Cicutoxin, an antileukemic principle from Cicuta maculata, and the cytotoxicity of the related derivatives” (1986) one finds T/C and EC50 data, which are given here for 8 molecules.

≈ marks a conversion by molar mass, not a printed value.

One experiment relates to P388. As to the kind of experiment: Antileukemic activity against mouse P388 cells xenografted in mouse at 1 mg/kg dosed for 3 days relative to control. The class given is functional.
Details: not given
For orientation: T/C means the ratio of treated to control. The molecule `CCC[C@@H](O)/C=C/C=C/C=C/C#CC#CCCCO` [CICUTOXIN] registered a T/C of 165%.

The test system of another experiment is P388. As to the kind of experiment: Antileukemic activity against mouse P388 cells xenografted in mouse at 200 mg/kg dosed for 1 day relative to control. The class given is functional.
Details: not given
Molecule `O=c1[nH]cc(F)c(=O)[nH]1` [FLUOROURACIL] registered a T/C of 135%.

The test system of a further experiment is KB. Kind of experiment: Cytotoxicity against human KB cells. The class given is functional. The conditions noted are these: read-out: ED50 (the source's name).
For the molecule `CCCC(=O)/C=C/C=C/C=C/C#CC#CCCCO`, the EC50 was over 4 µg/mL. On the same count and under the same terms, with `CCCC(/C=C/C=C/C=C/C#CC#CCCCOCOCCOC)OCOCCOC` (centres undefined) the figure was over 4 µg/mL; with `CCCC(/C=C/C=C/C=C/C#CC#CCCCOC(C)=O)OC(C)=O` (centres undefined), over 4 µg/mL; with `CCCC(O)CCCCCCCCCCCCCO` (centres undefined), over 4 µg/mL.

Regarding `CCCC(/C=C/C=C/C=C/C#CC#CCCCOCOCc1ccccc1)OCOCc1ccccc1` (centres undefined), the EC50 is over 4 µg/mL.

For the molecule `CCCC(O)/C=C/C=C/C=C/C#CC#CCCCOC(=O)c1ccccc1` (centres undefined), the EC50 is over 4 µg/mL. On the same count and under the same terms, to `CCC[C@@H](O)/C=C/C=C/C=C/C#CC#CCCCO` [CICUTOXIN] belongs 2 µg/mL (≈ 7.74 µM).
